Laboratory results reported in paper PMC12152147, “DDB1 engagement defines the selectivity of S656 analogs for cyclin K degradation over CDK inhibition” (EMBO Reports, 2025).
Several values for one entry are separate records, joined by “and”; a condition that tells them apart may be missing. Equal entries are not always repeated.

Legend:
OCI-AML5 cells = experiment: Cell death by Annexin V/PI staining; assay type: cell-based, H. sapiens; details: 24 h
[1] = system: BRCA2, ATR and BLM mRNA expression; experiment: qPCR of DDR transcripts in OCI-AML5; assay type: cell-based, H. sapiens; details: OCI-AML5, 4 h; S656 5 μM, THZ531 200 nM; normalized to HPRT, DMSO = 1
Description: RNA was harvested in Trizol (ThermoFisher) and isolated according to manufacturer’s protocol and reverse transcribed using MMLV reverse transcriptase and random primers (ThermoFisher). Quantitative PCR was performed using validated assays designed for the Universal Probe Library (Roche) on the Viia7 (Applied Biosystems). qPCR primer sequences are available in Table EV2. Relative quantity of target is normalized to HPRT and compared to normalized expression of control cells.

[2] = biological target: T1, OCI-AML5 total protein extracts (cyclin K, CDKs, DDB1) (Homo sapiens, UniProt Q96IU4); experiment: Pull-down with immobilized probes and quantitative mass spectrometry; assay type: binding, H. sapiens; details: protein ABHD14B (Q96IU4)
T1 construct: endogenous in cells; host or cells: OCI-AML5 total protein extract
T1 sequence (Q96IU4 1-210): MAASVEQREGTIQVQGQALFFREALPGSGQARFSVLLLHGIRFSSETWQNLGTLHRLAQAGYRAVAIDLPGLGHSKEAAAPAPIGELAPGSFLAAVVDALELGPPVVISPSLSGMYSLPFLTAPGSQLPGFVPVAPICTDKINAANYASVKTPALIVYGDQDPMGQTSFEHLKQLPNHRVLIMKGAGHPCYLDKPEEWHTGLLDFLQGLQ
Description: (§1) Probe compounds were immobilized through their terminal amine on NHS-sepharose beads as previously described (Médard et al, [2015]). The prepared beads were then washed in PBS and equilibrated in Triton X-100 buffer. For each replicate, 1–2 mg of total proteins (2 mg/ml) were incubated end-over-end with 25 μl of beads overnight at 4 °C in low protein binding microtubes (Sarstedt). The samples were then washed twice in Triton X-100 buffer, transferred to new microtubes and further washed six times in PBS including another microtube transfer at the last wash. Beads pellets were resuspended in 50 mM ammonium bicarbonate and subjected to reduction, alkylation and tryptic digest as described above. Peptides were separated on an home-made reversed-phase column (150-μm i.d. by 200 mm) with a 56-min gradient from 10 to 30% ACN-0.2% FA and a 600-nl/min flow rate on a Easy nLC-1200 connected to a Exploris 480 (ThermoFisher Scientific, San Jose, CA). Each full MS spectrum acquired at a resolution of 120,000 was followed by tandem-MS (MS-MS) spectra acquisition on the most abundant multiply charged precursor ions for 3 s. Tandem-MS experiments were performed using higher energy collision dissociation (HCD) at a collision energy of 34%. The data were processed using PEAKS X Pro (Bioinformatics Solutions, Waterloo, ON) and a Uniprot human database (20366 entries). Mass tolerances on precursor and fragment ions were 10 ppm and 0.01 Da, respectively. Fixed modification was carbamidomethyl (C). Variable selected posttranslational modifications were acetylation (N-ter), oxidation (M), deamidation (NQ), phosphorylation (STY). The data were visualized with Scaffold 5.0 (protein threshold, 99%, with at least 2 peptides identified and a false-discovery rate [FDR] of 1% for peptides).
(§2) Differential Enrichment analysis of Proteomics data (DEP) package (Zhang et al, [2018]) in R was used to analyze the data (excluding proteins identified based on a single peptide), including data filtering, normalization, imputation of missing values and statistical testing of differentially expressed proteins.

[3] = biological target: T2, OCI-AML5 total protein extracts (cyclin K, CDKs, DDB1) (Homo sapiens, UniProt Q6UXT9); experiment: as above; assay type: binding, H. sapiens; details: protein ABHD15 (Q6UXT9)
T2 construct: endogenous in cells; host or cells: OCI-AML5 total protein extract
T2 sequence (Q6UXT9 24-468): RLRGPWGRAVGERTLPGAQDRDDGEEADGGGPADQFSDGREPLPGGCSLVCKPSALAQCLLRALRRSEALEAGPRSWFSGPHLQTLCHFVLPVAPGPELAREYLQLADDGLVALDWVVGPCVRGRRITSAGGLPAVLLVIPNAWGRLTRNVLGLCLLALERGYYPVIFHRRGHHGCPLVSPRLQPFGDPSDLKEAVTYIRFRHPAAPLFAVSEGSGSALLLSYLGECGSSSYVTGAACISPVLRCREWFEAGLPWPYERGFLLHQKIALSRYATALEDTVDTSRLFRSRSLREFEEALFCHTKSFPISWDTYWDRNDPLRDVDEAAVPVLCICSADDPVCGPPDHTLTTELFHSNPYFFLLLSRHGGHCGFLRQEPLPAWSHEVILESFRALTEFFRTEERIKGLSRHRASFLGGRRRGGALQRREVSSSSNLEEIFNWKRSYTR
Description: as §1, §2

[4] = biological target: T3, OCI-AML5 total protein extracts (cyclin K, CDKs, DDB1) (Homo sapiens, UniProt O75909); experiment: as above; assay type: binding, H. sapiens; details: OCI-AML5 total protein extracts; DEP analysis
T3 construct: endogenous in cells; host or cells: OCI-AML5 total protein extract
Description: as §1, §2

[5] = biological target: T4, OCI-AML5 total protein extracts (cyclin K, CDKs, DDB1) (Homo sapiens, UniProt P50750); experiment: as above; assay type: binding, H. sapiens; details: OCI-AML5 total protein extracts; DEP analysis
T4 construct: endogenous in cells; host or cells: OCI-AML5 total protein extract
Description: as §1, §2

[6] = biological target: T5, OCI-AML5 total protein extracts (cyclin K, CDKs, DDB1) (Homo sapiens, UniProt P45844); experiment: as above; assay type: binding, H. sapiens; details: protein ABCG1 (P45844)
T5 construct: endogenous in cells; host or cells: OCI-AML5 total protein extract
Description: as §1, §2

[7] = biological target: T6, OCI-AML5 total protein extracts (cyclin K, CDKs, DDB1) (Homo sapiens, UniProt P06493); experiment: as above; assay type: binding, H. sapiens; details: OCI-AML5 total protein extracts; DEP analysis
T6 construct: endogenous in cells; host or cells: OCI-AML5 total protein extract
Description: as §1, §2

[8] = biological target: T7, OCI-AML5 total protein extracts (cyclin K, CDKs, DDB1) (Homo sapiens, UniProt Q9NYV4); experiment: as above; assay type: binding, H. sapiens; details: OCI-AML5 total protein extracts; DEP analysis
T7 construct: endogenous in cells; host or cells: OCI-AML5 total protein extract
Description: as §1, §2

[9] = centered abundance, competition (compe)
[10] = probe vs probe with competition
[11] = probe with competition (compe) vs UOM-005839
[12] = probe with competition (compe) vs beads

T6 sequence (P06493 whole entry): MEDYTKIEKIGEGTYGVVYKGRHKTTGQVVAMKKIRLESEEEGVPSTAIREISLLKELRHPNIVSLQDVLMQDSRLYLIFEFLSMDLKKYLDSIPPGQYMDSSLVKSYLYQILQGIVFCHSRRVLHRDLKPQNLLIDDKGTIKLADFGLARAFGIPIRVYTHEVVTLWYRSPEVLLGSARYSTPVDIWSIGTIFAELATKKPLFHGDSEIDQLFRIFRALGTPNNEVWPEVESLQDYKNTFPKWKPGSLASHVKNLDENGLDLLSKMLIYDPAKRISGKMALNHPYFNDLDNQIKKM
T3 sequence (O75909 whole entry): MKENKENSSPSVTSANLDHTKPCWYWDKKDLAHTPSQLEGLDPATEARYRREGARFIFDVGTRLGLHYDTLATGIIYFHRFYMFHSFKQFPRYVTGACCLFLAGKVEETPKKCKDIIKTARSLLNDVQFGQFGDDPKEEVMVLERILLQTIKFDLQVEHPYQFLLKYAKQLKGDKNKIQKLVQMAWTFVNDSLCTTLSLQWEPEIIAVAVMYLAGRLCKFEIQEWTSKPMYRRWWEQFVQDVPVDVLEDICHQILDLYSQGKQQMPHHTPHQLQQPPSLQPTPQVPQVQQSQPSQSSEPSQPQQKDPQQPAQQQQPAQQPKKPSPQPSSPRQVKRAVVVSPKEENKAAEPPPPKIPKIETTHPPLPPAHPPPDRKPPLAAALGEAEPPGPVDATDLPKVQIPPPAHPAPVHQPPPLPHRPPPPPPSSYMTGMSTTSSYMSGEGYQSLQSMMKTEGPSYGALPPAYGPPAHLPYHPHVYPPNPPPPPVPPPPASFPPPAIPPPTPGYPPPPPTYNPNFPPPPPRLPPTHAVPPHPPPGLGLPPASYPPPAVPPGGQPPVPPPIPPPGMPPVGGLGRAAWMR
T7 sequence (Q9NYV4 whole entry): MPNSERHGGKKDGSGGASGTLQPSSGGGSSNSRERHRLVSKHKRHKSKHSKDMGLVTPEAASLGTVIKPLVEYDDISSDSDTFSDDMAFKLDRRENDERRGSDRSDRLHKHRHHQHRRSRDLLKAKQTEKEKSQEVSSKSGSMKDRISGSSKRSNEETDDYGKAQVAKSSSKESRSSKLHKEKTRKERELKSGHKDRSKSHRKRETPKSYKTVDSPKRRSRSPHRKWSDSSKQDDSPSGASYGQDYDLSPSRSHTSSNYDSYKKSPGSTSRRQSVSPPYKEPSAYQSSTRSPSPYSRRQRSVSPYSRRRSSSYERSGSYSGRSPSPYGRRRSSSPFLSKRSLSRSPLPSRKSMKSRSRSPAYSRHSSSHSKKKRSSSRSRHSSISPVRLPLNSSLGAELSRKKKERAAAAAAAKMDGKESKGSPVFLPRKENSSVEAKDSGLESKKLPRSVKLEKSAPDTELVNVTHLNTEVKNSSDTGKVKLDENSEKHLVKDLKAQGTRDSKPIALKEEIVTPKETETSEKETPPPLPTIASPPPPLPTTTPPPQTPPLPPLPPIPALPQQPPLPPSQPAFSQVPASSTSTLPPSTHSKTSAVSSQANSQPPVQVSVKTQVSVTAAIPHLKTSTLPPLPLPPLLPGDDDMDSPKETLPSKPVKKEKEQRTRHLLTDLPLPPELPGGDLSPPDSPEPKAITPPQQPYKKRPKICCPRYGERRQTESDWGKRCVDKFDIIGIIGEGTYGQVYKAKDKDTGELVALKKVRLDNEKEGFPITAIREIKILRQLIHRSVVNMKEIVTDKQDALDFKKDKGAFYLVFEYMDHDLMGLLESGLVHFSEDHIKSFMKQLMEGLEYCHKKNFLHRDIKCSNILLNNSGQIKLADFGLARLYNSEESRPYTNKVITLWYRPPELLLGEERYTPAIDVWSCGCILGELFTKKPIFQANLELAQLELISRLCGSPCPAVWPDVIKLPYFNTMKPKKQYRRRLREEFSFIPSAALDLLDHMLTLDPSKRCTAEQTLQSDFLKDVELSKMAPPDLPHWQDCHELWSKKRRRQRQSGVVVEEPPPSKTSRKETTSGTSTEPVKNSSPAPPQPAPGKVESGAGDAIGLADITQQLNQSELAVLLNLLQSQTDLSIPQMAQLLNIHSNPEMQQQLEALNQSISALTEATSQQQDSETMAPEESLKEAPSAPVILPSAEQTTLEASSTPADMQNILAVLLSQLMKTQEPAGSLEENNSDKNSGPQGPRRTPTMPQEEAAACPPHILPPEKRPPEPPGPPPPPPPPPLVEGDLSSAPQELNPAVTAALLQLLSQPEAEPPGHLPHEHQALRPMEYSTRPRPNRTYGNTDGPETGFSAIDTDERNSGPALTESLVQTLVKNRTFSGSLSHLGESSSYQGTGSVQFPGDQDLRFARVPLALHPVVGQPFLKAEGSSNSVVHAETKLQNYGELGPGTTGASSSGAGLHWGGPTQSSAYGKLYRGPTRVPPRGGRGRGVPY
T4 sequence (P50750 whole entry): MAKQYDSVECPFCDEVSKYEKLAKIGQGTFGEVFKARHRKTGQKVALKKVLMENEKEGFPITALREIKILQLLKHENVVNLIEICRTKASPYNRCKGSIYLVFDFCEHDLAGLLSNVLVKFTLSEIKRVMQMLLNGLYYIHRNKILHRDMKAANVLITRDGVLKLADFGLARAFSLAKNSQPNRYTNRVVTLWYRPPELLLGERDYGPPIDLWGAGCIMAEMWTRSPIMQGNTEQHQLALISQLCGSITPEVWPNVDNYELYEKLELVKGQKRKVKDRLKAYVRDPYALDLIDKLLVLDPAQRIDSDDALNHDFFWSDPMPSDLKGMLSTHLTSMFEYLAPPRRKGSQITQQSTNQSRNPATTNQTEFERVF

## CN(C)c1ccc(CC(=O)Nc2ncc(SCc3cccnc3)s2)cc1 [S656]
OCI-AML5 cells; S656 1uM
  Early Apoptosis (FITC+/PI-): 5.3% and 6.01% and 3.13%
  Live(FITC-/PI-): 87.8% and 65.8% and 86.8%
  Necrosis (FITC-/PI+): 0.1% and 0.36% and 0.49%
OCI-AML5 cells; S656 3uM
  Late Apoptosis (FITC+/PI+): 39.5% and 53.2% and 33.4%
  Live(FITC-/PI-): 44.5% and 40.2% and 57.7%
  Necrosis (FITC-/PI+): 0.2% and 1.08% and 1.83%
OCI-AML5 cells; S656 5uM
  Late Apoptosis (FITC+/PI+): 56.1% and 61.6% and 54.4%
  Live(FITC-/PI-): 24.3% and 31% and 39%
  Necrosis (FITC-/PI+): 0.6% and 3.31% and 1.13%
[1]
  ATR mRNA: 0.3 and 0.2683 and 0.3666
  BRCA2 mRNA: 0.127 and 0.1345 and 0.2247

## CN(CCOCCOCCN)c1ccc(CC(=O)Nc2ncc(SCc3cccnc3)s2)cc1 [UOM-005790]
[2]; centered abundance
  UOM-005790_centered: 1.19
[2]; [9]
  UOM-005790compe_centered: 1.42
[2]; immobilized probe vs beads
  UOM-005790_vs_Beads_ratio: 4.31
[2]; probe vs probe UOM-005839
  UOM-005790_vs_UOM-005839_ratio: 0.69
[2]; [10]
  UOM-005790_vs_UOM-005790compe_ratio: -0.227
[2]; [11]
  UOM-005790compe_vs_UOM-005839_ratio: 0.916
[2]; [12]
  UOM-005790compe_vs_Beads_ratio: 4.54
[3]; centered abundance
  UOM-005790_centered: 1.53
[3]; [9]
  UOM-005790compe_centered: 1.26
[3]; immobilized probe vs beads
  UOM-005790_vs_Beads_ratio: 5.2
[3]; probe vs probe UOM-005839
  UOM-005790_vs_UOM-005839_ratio: 0.645
[3]; [10]
  UOM-005790_vs_UOM-005790compe_ratio: 0.275
[3]; [11]
  UOM-005790compe_vs_UOM-005839_ratio: 0.37
[3]; [12]
  UOM-005790compe_vs_Beads_ratio: 4.93
[4]
  pull-down enrichment of Cyclin K: 2.779 and 2.982 and 2.894
[5]
  pull-down enrichment of CDK9: 2.785 and 2.837 and 2.887
[6]; centered abundance
  UOM-005790_centered: 2.21
[6]; [9]
  UOM-005790compe_centered: 1.7
[6]; immobilized probe vs beads
  UOM-005790_vs_Beads_ratio: 4.82
[6]; probe vs probe UOM-005839
  UOM-005790_vs_UOM-005839_ratio: 3.51
[6]; [10]
  UOM-005790_vs_UOM-005790compe_ratio: 0.512
[6]; [11]
  UOM-005790compe_vs_UOM-005839_ratio: 3
[6]; [12]
  UOM-005790compe_vs_Beads_ratio: 4.31
[7]
  pull-down enrichment of CDK1: 2.811 and 2.814 and 2.979
[8]
  pull-down enrichment of CDK12: 0.5953 and 0.6765 and 0.5336
